Data reported in patent publication US20250108064A1, “PHOSPHATE PRODRUGS OF CANNABINOIDS” (priority 2021, published 2025).
≈ marks a conversion by molar mass, not a printed value.

Assays:
[1] = Liver microsome stability assay (MLM); type: in vitro ADME; conditions: mouse, mouse liver microsomes, pH 7.4; 3 μM test compound, NADPH; read-out: T 1/2 in MLM
Experimental: (§1) General Experimental: Human and mouse liver microsomes were purchased from Xenotech at 20 mg/mL. NADPH (Sigma-Aldrich) 10 mM stocks were prepared in deionized water.
Procedure for Liver Microsome Stability Assay: Test compounds and positive controls were dissolved in 100% DMSO to make 10 mM stock solutions. Verapamil (Sigma-Aldrich) and diphenhydramine (Sigma-Aldrich) were used as positive controls for both human liver microsomes (HLM) and mouse liver microsomes (MLM). The 10 mM stock solutions of test and control compounds were further diluted in potassium phosphate buffer (100 mM, pH 7.4) to 500 μM to ensure that the organic solvent content was <0.2%. The liver microsome (HLM or MLM) assay was prepared in a 1.5 mL Eppendorf tube with a final volume of 1100 μL for duplicate runs. Each reaction contained phosphate buffer (928.4 μL), liver microsomes (55 μL), and test compound (6.6 μL of 500 μM), resulting in a final concentration of 3 μM for the test compound. The reaction was initiated with 110 μL of 10 mM NADPH. Aliquots (100 μL) were removed in duplicate at 0, 5, 10, 15, and 30 min and quenched in […] of 100% cold methanol which contained internal standard (ISTD: d5-7-ethoxy coumarin 2 μM). The aliquots were centrifuged at 12,000 g for 5 min, and the supernatant was transferred and placed in an LC-MS vial. Each time point was assessed by LC-MS/MS, and the area under the m/z curve (AUC), based on the MRM transition, was integrated w.r.t the ISTD. Positive controls were conducted at a final volume of 550 μL to enable a single run for each time point. Negative controls in the absence of NADPH were performed with the test and control compounds, respectively, at a final volume of 150 μL and measured at the most prolonged time point. Control compounds were processed and analyzed like test compounds. […] Half-life (T1/2) was calculated using the data obtained from LC-MS/MS and by plotting ln (% remaining of the parent prodrug) versus time and performing linear regression to determine slope. […]

[2] = Plasma stability (mouse plasma); type: in vitro ADME; conditions: read-out: T½ in mouse plasma (converted)
physchem = type: physicochemical; conditions: aqueous buffer, kinetic from dmso stock; nephelometry, PBS pH 7.0-7.3, 1% DMSO, 25° C., 90 min
Experimental: General Experimental: Nephelometry experiments were performed using untreated Corning® Costar® 96-well black polystyrene plates with clear flat bottoms. Sample stock solutions and serial dilutions were prepared with DriSolv® DMSO purchased from MilliporeSigma. All 100-fold dilutions and replicate experiments were prepared using Gibco® Dulbecco's phosphate-buffered saline (DPBS, no calcium, no magnesium) with a pH range of 7.0-7.3 as aqueous media. […] Nephelometry data was obtained using a NEPHELOstar® microplate reader and processed with MARS data analysis software from BMG LabTech.
Procedure for Nephelometry Experiments: Tested compounds were dissolved in 100% DMSO to make stock solutions of specified concentrations, ranging from 10 mM minimum up to 50 mM maximum. The sample then underwent serial dilution in a 96-well plate (Corning® Costar®). Well A1 of the plate contained 100% DMSO. […] Using a 12 channel multichannel pipette, 2.5 μL of sample from row A was transferred to each well in row B through row H of the plate. Next, 30 μL of PBS (pH=7.0-7.3) was added to row B through row H, providing each well with 32.5 μL. The plate was then incubated for 30 sec with shaking. Finally, 217.5 μL of PBS buffer was added to row B through row H, and the entire plate was incubated with shaking at 25° C. for 90 min. Note: The final volume of DMSO in actual experiments with PBS buffer was 1% throughout the plate. After 90 min, the 96-well plate was analyzed with a NEPHELOstar® instrument and the data was processed with MARS data analysis software.

[3] = Liver microsome stability assay (HLM); type: in vitro ADME; conditions: human, microsomes, pH 7.4; 3 μM test compound, NADPH; read-out: T½ in HLM
Experimental: as §1
Procedure for Liver Microsome Stability Assay: Test compounds and positive controls were dissolved in 100% DMSO to make 10 mM stock solutions. Verapamil (Sigma-Aldrich) and diphenhydramine (Sigma-Aldrich) were used as positive controls for both human liver microsomes (HLM) and mouse liver microsomes (MLM). The 10 mM stock solutions of test and control compounds were further diluted in potassium phosphate buffer (100 mM, pH 7.4) to 500 μM to ensure that the organic solvent content was <0.2%. The liver microsome (HLM or MLM) assay was prepared in a 1.5 mL Eppendorf tube with a final volume of 1100 μL for duplicate runs. Each reaction contained phosphate buffer (928.4 μL), liver microsomes (55 μL), and test compound (6.6 μL of 500 μM), resulting in a final concentration of 3 μM for the test compound. The reaction was initiated with 110 μL of 10 mM NADPH. Aliquots (100 μL) were removed in duplicate at 0, 5, 10, 15, and 30 min and quenched in […] of 100% cold methanol which contained internal standard (ISTD: d5-7-ethoxy coumarin 2 μM). The aliquots were centrifuged at 12,000 g for 5 min, and the supernatant was transferred and placed in an LC-MS vial. Each time point was assessed by LC-MS/MS, and the area under the m/z curve (AUC), based on the MRM transition, was integrated w.r.t the ISTD. Positive controls were conducted at a final volume of 550 μL to enable a single run for each time point. Negative controls in the absence of NADPH were performed with the test and control compounds, respectively, at a final volume of 150 μL and measured at the most prolonged time point. Control compounds were processed and analyzed like test compounds. Each time point was run in triplicates on LC-MS/MS followed by in-between blank washes to avoid the carryover and to equilibrate the column. Half-life (T1/2) was calculated using the data obtained from LC-MS/MS and by plotting ln (% remaining of the parent prodrug) versus time and performing linear regression to determine slope. Slope=−k and T1/2=0.693/k for first-order kinetics.

[4] = Simulated Gastric Fluid stability assay; type: in vitro ADME; conditions: simulated gastric fluid (SGF) with pepsin, pH 1.2; SGF pH about 1.2 with pepsin, 37° C.; read-out: T½ in SGF (converted)
Experimental: General Experimental: Simulated Gastric Fluid (SGF) is a pH 1.2 HCl solution with purified pepsin (800-2500 units of activity) (Test Solutions, The United States Pharmacopoeia (USP), 2008). SGF was prepared according to a procedure described in Test Solution—USP and other published articles (Bioorganic Chemistry, 49 (2013), 40-48). Sodium chloride 0.20 g and purified pepsin 0.32 g (Sigma), derived from porcine stomach mucosa with an activity of 800 to 2500 units per mg of protein, were dissolved in 0.70 mL hydrochloric acid and sufficient water to make 100 mL. […] The SGF solution prepared was used for in vitro studies to evaluate the prodrug stability.
At specified time intervals, aliquots (100 μL) were withdrawn and added to pre-cooled 100% acetonitrile (200 μL spiked with ISTD) and mixed well by vortex mixing for 2 min. The mixture was centrifuged at 13000 rpm for 15 min at 4° C.

[5] = daily oral doses of 10 mg/kg chronically administered; cited from earlier work
[6] = Plasma stability assay (human plasma); type: in vitro ADME; conditions: 37° C., read-out: T½ in human plasma (converted)
Experimental: General Experimental: Procaine and Procainamide were purchased from Sigma-Aldrich. Human plasma was obtained from BioIVT (Cat. No. […]2N) and 1X Dulbecco's PBS (pH 7.4, Gibco) was obtained from Thermos Fischer. Stock solutions were prepared in 100% DMSO, and suitable dilutions of target analytes were prepared in methanol for method development.
Procedure for Plasma Stability Assay: Test compounds were dissolved in DMSO to make a stock solution of 10 mM and then diluted to 500 μM in buffer (or 70% MeOH). Human plasma was thawed at ambient temperature and is aliquoted ([…]) to a 1.5 mL Eppendorf tube in duplicates (A and B) for each compound. Plasma was incubated at 37° C. for 10 minutes in an incubator shaker at 150 rpm; the reaction was initiated by the addition of the test compound (6.0 μL) and vortex mixing. The total reaction volume was 1000 μL where the final organic solvent concentrations were 0.6% MeOH and 0.03% DMSO. The spiked plasma samples were incubated at 37° C. for 4 hrs. The reactions were terminated at time points 0, 15, 30, 60, 120, 180, and 240 min by taking a 100 μL aliquot from the test incubation mixture and immediately quenching it in ice-cold acetonitrile containing internal standard (150 μL with 2 μM ISTD), followed by a quick vortex mixing. In addition, matrix blank was prepared by adding acetonitrile solutions containing ISTD to plasma samples without any of the analytes or control compounds. Also, an additional tube was made to measure compound degradation in PBS buffer. The samples were centrifuged at 15000 rpm for 25 min at 4° C. The supernatant was transferred to an LC-MS vial for analysis by LC/MS-MS. Each time point was run in duplicates followed by in-between blank washes to avoid the carryover and to equilibrate the column. Half-life (T1/2) was calculated using the data obtained from LC-MS/MS and by plotting ln (% remaining of the parent prodrug) versus time and performing linear regression to determine slope. Slope=−k and T1/2=0.693/k for first-order kinetics.
These positive controls were run in parallel to test the systems for competency.

Structure (SMILES)	half-life at 3 μM [1] [min]	half-life [2] [min]	solubility (physchem) [µM]	half-life [3] [min]	half-life at 2 mM [4] [min]	mean plasma concentration [5] [ng/mL]	half-life [6] [min]	half-life ([6]; unit min) [min]	half-life ([2]; unit min) [min]
C=C(C)[C@@H]1CCC(C)=C[C@H]1c1c(O)cc(CCCCC)cc1O [CBD, Cannabidiol, reference compound]	2.9	576	16.9 ± 0.55 (≈ 5.32 µg/mL)	5.8	> 180	5.9 to 11.2	–	–	–
C=C(C)[C@@H]1CCC(C)=C[C@H]1c1c(O)cc(CCCCC)cc1OC(=O)NCCOP(=O)(O)O.N.N [38a, (1′R,2′R)-6-hydroxy-5′-methyl-4-pentyl-2′-(prop-1-en-2-yl)-1′,2′,3′,4′-tetrahydro-[1,1′-biphenyl]-2-yl(2-(phosphonooxy)ethyl)carbamate di-ammonium salt]	–	–	> 500	121	–	–	> 240	–	–
C=C(C)[C@@H]1CCC(C)=C[C@H]1c1c(O)cc(CCCCC)cc1OC(=O)C1(OP(=O)(O)OCCOCCOC)CC1.N [14j, 1-((((1′R,2′R)-6-hydroxy-5′-methyl-4-pentyl-2′-(prop-1-en-2-yl)-1′,2′,3′,4′-tetrahydro-[1,1′-biphenyl]-2-yl)oxy)carbonyl)cyclopropyl (2-(2-methoxyethoxy)ethyl) phosphate ammonium salt]	–	–	> 500	24	–	–	> 240	–	–
C=C(C)[C@@H]1CCC(C)=C[C@H]1c1c(O)cc(CCCCC)cc1OC(=O)C(C)OP(=O)(O)O.N.N (stereo partly drawn) [7d, 1-(((1′R,2′R)-6-hydroxy-5′-methyl-4-pentyl-2′-(prop-1-en-2-yl)-1′,2′,3′,4′-tetrahydro-[1,1′-biphenyl]-2-yl)oxy)-1-oxopropan-2-yl phosphate di-ammonium salt]	–	–	> 500	50	–	–	–	21	–
C=C(C)[C@@H]1CCC(C)=C[C@H]1c1c(O)cc(CCCCC)cc1OC(=O)COP(=O)(O)O.N.N [7a, 2-(((1′R,2′R)-6-hydroxy-5′-methyl-4-pentyl-2′-(prop-1-en-2-yl)-1′,2′,3′,4′-tetrahydro-[1,1′-biphenyl]-2-yl)oxy)-2-oxoethyl phosphate di-ammonium salt]	6.1	–	> 500	59	315	–	–	20	4.5
C=C(C)[C@@H]1CCC(C)=C[C@H]1c1c(O)cc(CCCCC)cc1OC(=O)OCCCOP(=O)(O)O.N.N [29b, (1′R,2′R)-6-hydroxy-5′-methyl-4-pentyl-2′-(prop-1-en-2-yl)-1′,2′,3′,4′-tetrahydro-[1,1′-biphenyl]-2-yl(3-(phosphonooxy)propyl) carbonate di-ammonium salt]	–	–	> 500	19	–	–	> 240	–	–
C=C(C)[C@@H]1CCC(C)=C[C@H]1c1c(O)cc(CCCCC)cc1OC(=O)C1(OP(=O)(O)OCCCCCCC)CC1.N [14e, heptyl (1-((((1′R,2′R)-6-hydroxy-5′-methyl-4-pentyl-2′-(prop-1-en-2-yl)-1′,2′,3′,4′-tetrahydro-[1,1′-biphenyl]-2-yl)oxy)carbonyl)cyclopropyl) phosphate ammonium salt]	–	–	57 ± 1.24	45	–	–	> 240	–	–
C=C(C)[C@@H]1CCC(C)=C[C@H]1c1c(O)cc(CCCCC)cc1OC(=O)OCCCCOP(=O)(O)O.N.N [29c, (1′R,2′R)-6-hydroxy-5′-methyl-4-pentyl-2′-(prop-1-en-2-yl)-1′,2′,3′,4′-tetrahydro-[1,1′-biphenyl]-2-yl(4-(phosphonooxy)butyl) carbonate di-ammonium salt]	–	–	> 500	25	–	–	> 240	–	–
C=C(C)[C@@H]1CCC(C)=C[C@H]1c1c(O)cc(CCCCC)cc1OC(=O)C1CC(OP(=O)(O)O)C1.N.N (stereo partly drawn) [7c, 3-((((1′R,2′R)-6-hydroxy-5′-methyl-4-pentyl-2′-(prop-1-en-2-yl)-1′,2′,3′,4′-tetrahydro-[1,1′-biphenyl]-2-yl)oxy)carbonyl)cyclobutyl phosphate di-ammonium salt]	–	–	> 500	53	–	–	432	–	–
C=C(C)[C@@H]1CCC(C)=C[C@H]1c1c(O)cc(CCCCC)cc1OC(=O)C1(OP(=O)(O)OCCOC)CC1.N [14i, 1-((((1′R,2′R)-6-hydroxy-5′-methyl-4-pentyl-2′-(prop-1-en-2-yl)-1′,2′,3′,4′-tetrahydro-[1,1′-biphenyl]-2-yl)oxy)carbonyl)cyclopropyl (2-methoxyethyl) phosphate ammonium salt]	–	–	> 500	19	–	–	> 240	–	–
